≈ marks a conversion by molar mass, not a printed value.
How the values were obtained:
L-929 mouse fibroblasts [1] = assay: Toxicity assay (MTT, confluent layer); type: cell-based; settings: L929; after 18 h
Description: L-929 mouse fibroblasts from DSMZ cultivated at 37° C. and […] in DME medium (high glucose) supplemented with 10% fetal calf serum. Cell culture reagents came from Life Technologies Inc. (GIBCO BRL). […] of sus-pended cells (100,000/mL) were seeded into wells of 96-well plate. After 4 days when the cells had formed a confluent layer, […] of serial dilutions of the test compound were added to the cells. After 18 hours of incubation metabolic activity of the cells was determined using an MTT assay (Mosman et al., 1983).

E. coli ToIC = assay: Minimum inhibition concentration (MIC); type: cell-based; settings: Escherichia coli, read-out: minimum inhibition concentration (MIC)
Source text: First, the minimum inhibition concentration (MIC) of carolacton on E. coli ToIC strain has been determined. We started to develop the resistant mutants on CASO agar plates supplemented with 4× the MIC concentration of carolacton as selection pressure. Different numbers of E. coli ToIC cells from 1×10^7 to 10^9 were spread on caso agar plate with carolacton, respectively. After 7 days, E. coli ToIC colonies, which were resistant to carolacton, started to form on the agar plates. The mutants picked were inoculated in liquid MHB medium supplemented with carolacton.

L-929 mouse fibroblasts [2] = assay: Cell proliferation assay with mouse fibroblasts (MTT); type: cell-based
Description: L-929 mouse fibroblasts from DSMZ cultivated at 37° C. and 10% CO2 in DME medium (high glucose) supplemented with 10% fetal calf serum. Cell culture reagents came from Life Technologies Inc. (GIBCO BRL). […] of serial dilutions of the test compound were given to […] of suspended cells (50,000/mL) in wells of 96-well plates. After 5 days of incubation growth inhibition (IC50) was determined using an MTT assay (Mosman et al., 1983).

S. mutans ΔfoID biofilms = assay: S. mutans biofilm viability assay, foID deletion mutant; type: cell-based, Streptococcus mutans; settings: 2.5 μg/ml carolacton
Description: According to Reck et al., 2011, S. mutans biofilms were grown in THBY+0.5% (w/v) sucrose in the presence of 2.5 μg/ml carolacton (cf. SI Methods). Cell viability was determined by staining of 20 h-old S. mutans biofilms with the LIVE/DEAD Viability Kit (Invitrogen) and by measuring fluorescence with a Victor^3 multilabel counter (Perkin-Elmer). Subsequently, the green/red fluorescence ratio was calculated and the relative inhibition of the treated biofilms determined in comparison to the untreated control.
For determination of Carolacton-induced cell death of S. mutans biofilms, o/n cultures of S. mutans were diluted to an OD600 of 0.01 in THBY+0.5% (w/v) sucrose. 10 μl of a Carolacton solution (2.5 μg/ml and 0.25 μg/ml in methanol) was pipetted into the wells of black a 96-well polystyrene Nunc MicroWell plates with transparent bottoms (ThermoFisher); control wells contained 10 μl of methanol. […]
The viability of S. mutans biofilm cells was assayed by staining with the commercially available Live/Dead staining kit (Invitrogen). […] Green and red fluorescence values of stained cells were measured using a Victor^3 fluorescence plate reader (Perkin-Elmer). The green/red ratio of treated and untreated cells was calculated and the relative cell death within Carolacton-treated biofilms determined relative to the untreated controls (Reck et al., 2011).

hsMTHFD2 = target: T1, hsMTHFD2 (Homo sapiens, UniProt P13995); assay: Surface plasmon resonance assay; type: binding; settings: read-out: KD (SPR)
T1 construct: His-tag (vector pHis-TEV); made in house; host or cells: E. coli BL21 (DE3)
T1 sequence (P13995 36-350): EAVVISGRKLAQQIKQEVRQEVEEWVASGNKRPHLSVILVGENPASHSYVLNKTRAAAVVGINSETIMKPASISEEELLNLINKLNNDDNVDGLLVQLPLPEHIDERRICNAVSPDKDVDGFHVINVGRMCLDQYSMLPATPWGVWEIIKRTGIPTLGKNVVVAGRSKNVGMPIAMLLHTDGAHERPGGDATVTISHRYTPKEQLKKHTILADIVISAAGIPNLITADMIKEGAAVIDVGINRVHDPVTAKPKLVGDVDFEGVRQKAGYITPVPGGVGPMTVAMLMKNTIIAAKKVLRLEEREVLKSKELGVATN
Description: All surface plasmon resonance (SPR) experiments described in this study were performed on a Biacore X100 system. Different FoIDs with or without His-tag were coupled on CM5 sensor chips (GE Healthcare) by the amine coupling method using a kit from GE Healthcare Life Sciences (Freiburg, Germany). A pH scouting process was performed before protein immobilization to test the most appropriate buffer and the protein concentration for protein coupling. Finally, 20 μg/mL of ecFoID in 10 mM maleate buffer (pH 6.8), 30 μg/mL of ecFoID Q98H in 10 mM maleate buffer (pH 6.3), 40 μg/mL of ecFoID K54N in 10 mM maleate buffer (pH 5.8), 20 μg/mL of spFoID in 10 mM maleate buffer (pH 6.0) and 15 μg/mL of MTHFD2 (His-tag cleaved) in 10 mM maleate buffer (pH 6.8) were used for coupling. In the protein immobilization procedure, the contact time was calculated based on the pH scouting results to achieve -3000-5000 relative resonance units (RU). The buffer used in the SPR assays was 1×HBS-P buffer (10 mM HEPES pH 7.4, 150 mM NaCl, 0.05% Tween 20). The 1 mM stock solution of carolacton was prepared in 1×HBS-P buffer and diluted to different concentration ranges by two-fold serial dilution. In the SPR assay, the association time was 180 s and the dissociation time was 600 s. Data analysis was performed using the Biacore evaluation software. […]

For `CO[C@H](CC(=O)O)[C@@H](C)C(=O)[C@H](C)/C=C(\C)[C@H]1OC(=O)[C@H](O)[C@H](O)/C=C/[C@H](C)CCC[C@@H]1C` [Carolacton, carolacton], the acute toxicity (L-929 mouse fibroblasts [1]) was “no acute toxicity”, the MIC (E. coli ToIC) was 0.125 µg/mL (≈ 0.267 µM) and the “inhibition of growth of L929 cells reached” value (L-929 mouse fibroblasts [2]; L929 cells cultivated for 5 days) was no more than 50%. The IC50 (L-929 mouse fibroblasts [2]; Mus musculus, L929, 120 h, read-out: adapted IC50, inhibition of mouse fibroblast proliferation) was 3.5 µg/mL (≈ 7.47 µM), the “sensitivity of biofilms to carolacton treatment” value (S. mutans ΔfoID biofilms) was “fully insensitive” and the Kd (hsMTHFD2) was 19 nM.

From patent US11357752B2, “Carolacton and derivatives thereof for use in the treatment of cell proliferation disorders” (Helmholtz-Zentrum für Infektionsforschung GmbH, priority 2017, dated 2022)
